Data reported in PubChem BioAssay AID206 (DTP/NCI, 2004).
Inconclusive results are not listed.

Tested on: nude mice, HT29 intrarenal xenograft, tumor weight T/C
Experiment: NCI In Vivo Anticancer Drug Screen. Data for tumor model HT29;CX-1 Human Adenocarcinoma (MER+) (intrarenal inoculation) in NU/NU Swiss (nude) mice
Details: endpoint: mean tumor weight change, higher = larger tumour
In short: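 Compounds were given to mice carrying transplantable tumors; a vehicle-dosed group served as control. The endpoint measured in each group was compared as a T/C quotient.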

[1] = dose: 18.75 mg/kg/injection, schedule: Q04DX004 (sc), vehicle: saline with Tween-80
[2] = dose: 50.0 mg/kg/injection, schedule: Q01DX010 (sc), vehicle: saline with Tween-80
[3] = dose: 100.0 mg/kg/injection, schedule: Q01DX010 (sc), vehicle: saline with Tween-80
[4] = dose: 200.0 mg/kg/injection, schedule: Q04DX004 (sc), vehicle: saline with Tween-80
[5] = dose: 400.0 mg/kg/injection, schedule: Q04DX004 (sc), vehicle: saline with Tween-80

Oc1cc2ccccc2c(-c2c(O)c(O)cc3ccccc23)c1O
T/C (dose: 225.0 mg/kg/injection, schedule: Q04DX004 (sc), vehicle: saline with Tween-80): 101 % of control
T/C (dose: 450.0 mg/kg/injection, schedule: Q04DX004 (sc), vehicle: saline with Tween-80): 55 % of control
T/C (dose: 900.0 mg/kg/injection, schedule: Q04DX004 (sc), vehicle: saline with Tween-80): 86 % of control
T/C (dose: 1200.0 mg/kg/injection, schedule: Q04DX004 (sc), vehicle: saline with Tween-80): 120 % of control
T/C (dose: 1800.0 mg/kg/injection, schedule: Q04DX004 (sc), vehicle: saline with Tween-80): 28 % of control
T/C (dose: 2400.0 mg/kg/injection, schedule: Q04DX004 (sc), vehicle: saline with Tween-80): 94 % of control

Nc1ccc2nc3ccc(N)cc3[n+](-c3ccccc3)c2c1
T/C (dose: 9.0 mg/kg/injection, schedule: Q04DX004 (sc), vehicle: saline): 80 % of control
T/C (dose: 18.0 mg/kg/injection, schedule: Q04DX004 (sc), vehicle: saline): 62 % of control
T/C (dose: 36.0 mg/kg/injection, schedule: Q04DX004 (sc), vehicle: saline): 96 % of control
T/C (dose: 72.0 mg/kg/injection, schedule: Q04DX004 (sc), vehicle: saline): 52 % of control

c1ccc([C@H]2CN3CCSC3=N2)cc1
T/C (dose: 15.0 mg/kg/injection, schedule: Q04DX004 (sc), vehicle: saline): 152 % of control
T/C (dose: 30.0 mg/kg/injection, schedule: Q04DX004 (sc), vehicle: saline): 114 % of control

O=C1C2CC=CCC2C(=O)N1SC(Cl)(Cl)Cl (configuration not stated)
T/C [1]: 96 % of control
T/C (dose: 37.5 mg/kg/injection, schedule: Q04DX004 (sc), vehicle: saline with Tween-80): 88 % of control
T/C (dose: 300.0 mg/kg/injection, schedule: Q04DX004 (sc), vehicle: saline with Tween-80): 101 % of control
T/C (dose: 600.0 mg/kg/injection, schedule: Q04DX004 (sc), vehicle: saline with Tween-80): 71 % of control

C(CC1CO1)C1CO1 (configuration not stated)
T/C (dose: 50.0 mg/kg/injection, schedule: Q01DX010 (sc), vehicle: saline): 35 % of control
T/C (dose: 100.0 mg/kg/injection, schedule: Q01DX010 (sc), vehicle: saline): 37 % of control

CN(CCN(C)C(=O)CCOS(C)(=O)=O)C(=O)CCOS(C)(=O)=O
T/C (dose: 75.0 mg/kg/injection, schedule: Q04DX004 (sc), vehicle: saline): 64 % of control
T/C (dose: 150.0 mg/kg/injection, schedule: Q04DX004 (sc), vehicle: saline): 36 % of control

C[C@H](CCC[C@H](C)OS(=O)(=O)c1ccccc1)OS(=O)(=O)c1ccccc1
T/C (dose: 75.0 mg/kg/injection, schedule: Q04DX004 (sc), vehicle: saline with Tween-80): 49 % of control
T/C (dose: 150.0 mg/kg/injection, schedule: Q04DX004 (sc), vehicle: saline with Tween-80): 35 % of control

CCCCCCCCCCCCCCCC(=O)OCC1OC(n2ccc(N)nc2=O)C(O)C1O (configuration not stated)
T/C [1]: 41 % of control

O=c1nc(Oc2ccccc2)nc2ncccn12
T/C [2]: 312 % of control
T/C [3]: 156 % of control

CC1(C)OC1CS(=O)c1ccccc1 (configuration not stated)
T/C [4]: 61 % of control
T/C [5]: 117 % of control
T/C (dose: 800.0 mg/kg/injection, schedule: Q04DX004 (sc), vehicle: saline with Tween-80): 94 % of control

Nc1nnc[se]1
T/C (dose: 50.0 mg/kg/injection, schedule: Q04DX004 (sc), vehicle: saline with Tween-80): 58 % of control
T/C (dose: 100.0 mg/kg/injection, schedule: Q04DX004 (sc), vehicle: saline with Tween-80): 33 % of control
T/C [4]: 34 % of control
T/C [5]: 23 % of control

CC(C)CCCCCCCCCCCCC(=O)NCC(=O)NC1C(C)OC(Nc2ncnc3nc[nH]c23)C(O)C1O (configuration not stated)
T/C (dose: 2.0 mg/kg/injection, schedule: Q01DX010 (sc), vehicle: distilled water + Tween-80): -35 % of control
T/C (dose: 2.0 mg/kg/injection, schedule: Q01DX010 (sc), vehicle: saline with Tween-80): -6 % of control
T/C (dose: 4.0 mg/kg/injection, schedule: Q04DX004 (sc), vehicle: distilled water + Tween-80): 37 % of control
T/C (dose: 8.0 mg/kg/injection, schedule: Q01DX010 (sc), vehicle: distilled water + Tween-80): 20 % of control
T/C (dose: 8.0 mg/kg/injection, schedule: Q04DX004 (sc), vehicle: distilled water + Tween-80): 36 % of control
T/C (dose: 16.0 mg/kg/injection, schedule: Q01DX010 (sc), vehicle: saline with Tween-80): 23 % of control

O=C1NC(c2ccccc2)N=C2Oc3ccccc3C=C12 (configuration not stated)
T/C [2]: 115 % of control
T/C [3]: 155 % of control
T/C (dose: 200.0 mg/kg/injection, schedule: Q01DX010 (sc), vehicle: saline with Tween-80): 77 % of control
T/C (dose: 400.0 mg/kg/injection, schedule: Q01DX010 (sc), vehicle: saline with Tween-80): 54 % of control
